# Data taken from patent publication US20240400591A1 (Jacobio Pharmaceuticals Co., Ltd., priority 2021, published 2024).
# Target: T1, His-p53 Y220C (94-294) protein (Homo sapiens, UniProt P04637, Y220C)
# T1 construct: His-p53 Y220C (94-294) protein
# Experiment: In vitro DNA binding assay (HTRF)
# Assay type: biochemical
# Settings: % activation normalized to 2 μM Ref-1a high control
row,Structure (SMILES),EC50 [nM]
1,"COc1cc(P(C)(C)=O)cnc1NCC#Cc1sc2c(N[C@@H]3CCN(C)C[C@@H]3F)cccc2c1CC(F)(F)F [Example 207, (6-((3-(7-(((3S,4R)-3-fluoro-1-methylpiperidin-4-yl)amino)-3-(2,2,2-trifluoroethyl)benzo[b]thiophen-2-yl)prop-2-yn-1-yl)amino)-5-methoxypyridin-3-yl)dimethylphosphine oxide]",126
2,"COCCCN1CCC(Nc2cccc3c(CC(F)(F)F)c(C#CCNc4ccc(S(C)(=O)=O)cc4OC)sc23)CC1 [Example 20, N-[2-[3-(2-methoxy-4-methylsulfonyl-anilino)prop-1-ynyl]-3-(2,2,2-trifluoroethyl)benzothiophen-7-yl]-1-(3-methoxypropyl)piperidin-4-amine]",188
3,"CN1CC[C@@H](Nc2cccc3c(CC(F)(F)F)c(C#CCNc4ccc(P(C)(C)=O)c5c4OC(F)(F)O5)sc23)[C@@H](F)C1 [Example 164, (2,2-difluoro-7-((3-(7-(((3S,4R)-3-fluoro-1-methylpiperidin-4-yl)amino)-3-(2,2,2-trifluoroethyl)benzo[b]thiophen-2-yl)prop-2-yn-1-yl)amino)benzo[d][1,3]dioxol-4-yl)dimethylphosphine oxide]",120
4,"COc1cc2c(cc1NCC#Cc1sc3c(N[C@@H]4CCN(C)C[C@@H]4F)cccc3c1CC(F)(F)F)CNS2(=O)=O (racemic) [Example 77, 5-((3-(7-(((Z)-3-fluoro-1-methylpiperidin-4-yl)amino)-3-(2,2,2-trifluoroethyl)benzo[b]thiophen-2-yl)prop-2-yn-1-yl)amino)-6-methoxy-2,3-dihydrobenzo[d]isothiazole 1,1-dioxide]",904
5,"COc1cc(P(C)(C)=O)ccc1NCC#Cc1sc2c(N[C@@H]3CCN(C4CC(C)(C)OC(C)(C)C4)C[C@@H]3F)cccc2c1CC(F)(F)F [Example 181, (4-((3-(7-(((3S,4R)-3-fluoro-1-(2,2,6,6-tetramethyltetrahydro-2H-pyran-4-yl)piperidin-4-yl)amino)-3-(2,2,2-trifluoroethyl)benzo[b]thiophen-2-yl)prop-2-yn-1-yl)amino)-3-methoxyphenyl)dimethylphosphine oxide]",96
6,"CCP(=O)(CC)c1ccc(NCC#Cc2sc3c(NC4CCN(C5CCOCC5)CC4)cccc3c2CC(F)(F)F)c(OC)c1 [Example 155, diethyl(3-methoxy-4-((3-(7-((1-(tetrahydro-2H-pyran-4-yl)piperidin-4-yl)amino)-3-(2,2,2-trifluoroethyl)benzo[b]thiophen-2-yl)prop-2-yn-1-yl)amino)phenyl)phosphine oxide]",147
7,"CN1CC[C@H](Nc2cccc3c(CC(F)(F)F)c(C#CCNc4ccc(S(N)(=O)=O)cc4)sc23)[C@H](F)C1 (racemic) [Example 5, 4-((3-(7-(((3R,4S)-3-fluoro-1-methylpiperidin-4-yl)amino)-3-(2,2,2-trifluoroethyl)benzo[b]thiophen-2-yl)prop-2-yn-1-yl)amino)benzenesulfonamide]",32
8,"CN1CCC(Nc2cccc3c(CC(F)(F)F)c(C#CCNc4ccc(S(C)(=O)=O)cc4OCC(F)F)sc23)CC1 [Example 12, N-(2-(3-((2-(2,2-difluoroethoxy)-4-(methylsulfonyl)phenyl)amino)prop-1-yn-1-yl)-3-(2,2,2-trifluoroethyl)benzo[b]thiophen-7-yl)-1-methylpiperidin-4-amine]",141
9,"CCc1c(C#CCNc2ccc(S(N)(=O)=O)cc2)sc2c(NC3CCN(C)CC3)cccc12 [Example 1, 4-((3-(3-ethyl-7-((1-methylpiperidin-4-yl)amino)benzo[b]thiophen-2-yl)prop-2-yn-1-yl)amino)benzenesulfonamide]",345
10,"COc1cc(S(C)(=O)=O)ccc1NCC#Cc1sc2c(NC3CCN(C)CC3)cccc2c1CC(F)(F)F [Example 3, N-(2-(3-((2-methoxy-4-(methylsulfonyl)phenyl)amino)prop-1-yn-1-yl)-3-(2,2,2-trifluoroethyl)benzo[b]thiophen-7-yl)-1-methylpiperidin-4-amine]",81
11,"COc1cc(S(C)(=O)=O)ccc1NCC#Cc1sc2c(NC3CCN(CCF)CC3)cccc2c1CC(F)(F)F [Example 36, 1-(2-fluoroethyl)-N-(2-(3-((2-methoxy-4-(methylsulfonyl)phenyl)amino)prop-1-yn-1-yl)-3-(2,2,2-trifluoroethyl)benzo[b]thiophen-7-yl)piperidin-4-amine]",305
12,"CN1CCC(Nc2cccc3c(CC(F)(F)F)c(C#CCNc4ccc(S(N)(=O)=O)cc4)sc23)CC1 [Example 4, 4-((3-(7-((1-methylpiperidin-4-yl)amino)-3-(2,2,2-trifluoroethyl)benzo[b]thiophen-2-yl)prop-2-yn-1-yl)amino) benzenesulfonamide]",99
13,"COc1cc(S(C)(=O)=O)ccc1NCC#Cc1sc2c(N[C@H]3CC[C@H](N4CC5(CCOCC5)C4)CC3)cccc2c1CC(F)(F)F [Example 18, Trans-N-(4-(7-oxa-2-azaspiro[3.5]nonan-2-yl)cyclohexyl)-2-(3-((2-methoxy-4-(methylsulfonyl)phenyl)amino)prop-1-yn-1-yl)-3-(2,2,2-trifluoroethyl)benzo[b]thiophen-7-amine]",173
14,"COc1cc(S(C)(=O)=O)ccc1NCC#Cc1sc2c(NC3CC4CCC(C3)N4C)cccc2c1CC(F)(F)F (stereo not shown) [Example 26, N-(2-(3-((2-methoxy-4-(methylsulfonyl)phenyl)amino)prop-1-yn-1-yl)-3-(2,2,2-trifluoroethyl)benzo[b]thiophen-7-yl)-8-methyl-8-azabicyclo[3.2.1]octan-3-amine]",169
15,"COc1cc(S(C)(=O)=O)ccc1NCC#Cc1sc2c(NC3CC4CC3CN4C)cccc2c1CC(F)(F)F (stereo not shown) [Example 27, N-(2-(3-((2-methoxy-4-(methylsulfonyl)phenyl)amino)prop-1-yn-1-yl)-3-(2,2,2-trifluoroethyl)benzo[b]thiophen-7-yl)-2-methyl-2-azabicyclo[2.2.1]heptan-5-amine]",235
16,"COc1cc(S(=O)(=O)N(C)C)ccc1NCC#Cc1sc2c(NC3CCN(C)CC3)cccc2c1CC(F)(F)F [Example 21, 3-methoxy-N,N-dimethyl-4-((3-(7-((1-methylpiperidin-4-yl)amino)-3-(2,2,2-trifluoroethyl)benzo[b]thiophen-2-yl)prop-2-yn-1-yl)amino)benzenesulfonamide]",341
17,"COc1cc(P(C)(C)=O)ccc1NCC#Cc1sc2c(NC3CCN(C)CC3(F)F)cccc2c1CC(F)(F)F (stereo not shown) [Example 43, (4-((3-(7-((3,3-difluoro-1-methylpiperidin-4-yl)amino)-3-(2,2,2-trifluoroethyl)benzo[b]thiophen-2-yl)prop-2-yn-1-yl)amino)-3-methoxyphenyl)dimethylphosphine oxide]",390
18,"COc1cc(S(C)(=O)=O)ccc1NCC#Cc1sc2c(NC3CCNCC3)cccc2c1CC(F)(F)F [Example 38, N-(2-(3-((2-methoxy-4-(methylsulfonyl)phenyl)amino)prop-1-yn-1-yl)-3-(2,2,2-trifluoroethyl)benzo[b]thiophen-7-yl)piperidin-4-amine]",194
19,"COc1cc(S(C)(=O)=O)ccc1NCC#Cc1sc2c(NC3CCN(C)CC3)ccc(F)c2c1CC(F)(F)F [Example 51, N-(4-fluoro-2-(3-((2-methoxy-4-(methylsulfonyl)phenyl)amino)prop-1-yn-1-yl)-3-(2,2,2-trifluoroethyl)benzo[b]thiophen-7-yl)-1-methylpiperidin-4-amine]",479
